Read-outs that look alike come from different tables or passages of the source.
How the values were obtained:
Parameters in all cases: species or system AML cell lines (8); Primary HTS, single concentration about 10 uM, Cell Titer Glo viability; log10 luminescence, per cent inhibition relative to cycloheximide control
Conditions in all cases: 72 h, relative to cycloheximide control, log10 luminescence, inhibitor
[1] = test system: CHRF288-11
[2] = test system: CMS
[3] = test system: M07e
[4] = test system: U937
[5] = test system: MV4-11
[6] = test system: MOLM-13
[7] = test system: CMK
[8] = test system: ML-2

SMILES	CHRF288-11 %inh [1] [%]	CMS %inh [2] [%]	M07e %inh [3] [%]	U937 %inh [4] [%]	MV4-11 %inh [5] [%]	MOLM-13 %inh [6] [%]	CMK %inh [7] [%]	ML-2 %inh [8] [%]	CHRF288-11 %inh ([1]; CHRF288-11 %inh, 10 µM) [%]	CMS %inh ([2]; CMS %inh, 10 µM) [%]	M07e %inh ([3]; M07e %inh, 10 µM) [%]	U937 %inh ([4]; U937 %inh, 10 µM) [%]	MV4-11 %inh ([5]; MV4-11 %inh, 10 µM) [%]	MOLM-13 %inh ([6]; MOLM-13 %inh, 10 µM) [%]	CMK %inh ([7]; CMK %inh, 10 µM) [%]	ML-2 %inh ([8]; ML-2 %inh, 10 µM) [%]
O=C1[C@H](CC[C@H](O)c2ccc(F)cc2)[C@@H](c2ccc(O)cc2)N1c1ccc(F)cc1 [SJ000286078-3, EZETIMIBE]	8.692	1.706	4.29	5.441	0.198	5.807	3.95	2.139								
C=CC1=C(C(=O)O)N2C(=O)[C@@H](NC(=O)/C(=N\O)c3csc(N)n3)[C@H]2SC1 [SJ000286082-3]	4.774	3.32	3.525	3.234	0.05121	11.38	1.925	2.212								
CCCCC(=O)N(Cc1ccc(-c2ccccc2-c2nnn[nH]2)cc1)[C@H](C(=O)O)C(C)C [SJ000286083-3]									2.31	1.896	-3.413	1.517	-0.8771	-0.1457	-2.006	1.672
CCCCC(=O)N(Cc1ccc(-c2ccccc2-c2nnn[nH]2)cc1)[C@H](C(=O)O)C(C)C [SJ000286083-4]									3.369	-1.191	-1.607	-0.1303	-5.399	-2.877	-2.819	-0.2697
Cc1cccc(Nc2ccncc2S(=O)(=O)NC(=O)NC(C)C)c1 [SJ000286085-4, TORSEMIDE]									121.5	-0.4672	11.12	0.4443	3.27	0.9883	4.671	-0.2644
Cc1cccc(Nc2ccncc2S(=O)(=O)NC(=O)NC(C)C)c1 [SJ000286085-5, TORSEMIDE]									0.4254	-2.109	1.697	-1.512	0.9899	-1.664	-7.265	1.771
C[C@]12CCC(=O)C=C1C=C[C@@H]1[C@@H]2CC[C@@]2(C)[C@H]1CC[C@@]21CCC(=O)O1 [SJ000286091-3, CANRENONE]	2.724	0.603	2.621	3.254	4.82	5.53	0.4745	3.227								
CCOC(=O)[C@H](CCc1ccccc1)N[C@@H](C)C(=O)N1[C@H](C(=O)O)C[C@H]2CCCC[C@@H]21 [SJ000286095-3, TRANDOLAPRIL]	2.18	-0.04443	4.953	1.075	3.149	4.361	-2.955	-0.1668								
CN1CCN(C2=Nc3ccccc3Oc3ccc(Cl)cc32)CC1 [SJ000286106-7, LOXAPINE SUCCINATE]	14.63	1.134	4.618	3.14	2.165	7.459	-0.3035	1.422								
NS(=O)(=O)c1cc2c(cc1Cl)NC(C(Cl)Cl)NS2(=O)=O (centres unmarked) [SJ000286143-4, TRICHLORMETHIAZIDE]	5.642	0.3933	-1.321	-14.58	-3.026	-1.049	3.577	-0.7669								

Source: publication PMC6522510 (Nature Communications, 2019)
